{
  "source": "patent US10578610B2",
  "about": "“Peptide regulators of mitochondrial fusion and methods of use” (priority 2016, dated 2020)",
  "note": "Square brackets hold non-standard residues; d marks the D form. Ends that are not written are not given here. pS = N[C@@H](COP(=O)(O)O)C(=O)O",
  "data": [
    {"test_system": "mitochondrial fusion", "assay": "Alanine scanning of TetherX-1 and Go-Fuse peptides, effect on mitochondrial fusion in cells", "assay_type": "cell-based", "settings": "variants linked to TAT carrier via GG linker; compared with SEQ ID NO:48 or 50", "experimental": "Alanine scanning mutagenesis experiments were performed in order to identify amino acids critical for the function of the TetherX-1 and Go-Fuse peptides. Alanine was individually substituted for each amino acid in the Tetherx-1 and Go-Fuse peptides and the modified peptides, linked to the TAT carrier peptide via a GG linker, were administered to cells and the effect on mitochondrial fusion measured. Table 5 lists Go-Fuse variants which maintained fusion-promoting activity (activity similar to that of SEQ ID NO:48 or 50) while Table 6 lists variant Go-Fuse peptides in which substitutions had no effect (substitution of a non-critical amino acid).", "values": [
      {"substance": "GIMD(p)SLHMAARGGYGRKKRRQRRR (GIMD[pS]LHMAARGGYGRKKRRQRRR) [SEQ ID NO:54]", "fusion-promoting activity (Mfn agonist activity) of Go-Fuse variants": "statistically active"}
    ]},
    {"test_system": "murine embryonic fibroblasts (MEFs) expressing Mfn1 and/or Mfn2", "assay": "Mitochondrial aspect ratio and polarization in MEFs infected with adenovirus expressing Mfn2 HR1 peptides", "assay_type": "cell-based", "settings": "adenoviral expression, MOI 100; WT and Mfn2 null MEFs; vs Ad-Null/β-gal control", "experimental": "(§1) The effect of each of the peptides listed in Table 1 on mitochondrial function was tested in a cell culture system using murine embryonic fibroblasts (MEFs) as described in Example 4. Wild-type MEFs express both Mfn1 and Mfn2. Also used were MEFs in which the Mfn2 gene was knocked out (MEF Mfn2 KO). The details of the experiments are provided in Example 3. In these experiments, the MEFs were infected with adenovirus (AV) engineered to express one of the peptides or full-length Mfn2 as a control. Mitochondrial fusion activity was measured using confocal microscopy and quantitative analysis of the mitochondrial aspect ratio which is a measurement of mitochondria length/width and is an accepted index of mitochondrial fusion. […] As with all confocal microscopic images provided herein, treated cells were stained to allow quantitative assessment of mitochondrial aspect ratio and polarization using methods routine in the art. In Examples 4-8, MitoTracker Green is used to stain the mitochondria to allow measurement of mitochondrial length and width to determine the aspect ratio. Red TMRE is used to measure mitochondrial polarization (membrane potential). Blue Hoechst stains nuclei.\n(§2) Empty adenovirus (Ad-CMV-Null; #1300) and adenoviri expressing β-Galactosidase (Ad-CMV-b-Gal; #1080) or Cre recombinase (Ad-CMV-iCre; #1045) were from Vector Biolabs. Adenoviral expression vectors for hMfn2 HR1 and the minipeptides and Gly or Pro mutants were generated and amplified using standard methods. Adenoviral vectors were added to MEFs at 50% confluence at an MOI of 100.\n(§3) MEFs or neurons were grown on chamber slides and infected with recombinant adenoviri for 48-72 hours unless otherwise indicated. MEFs were stained with MitoTracker Green (200 nM, Invitrogen M7514) and Blue Hoechst (10 mg/ml, Invitrogen H3570), with or without tetramethylrhodamine ethyl ester (TMRE; 200 nM, Invitrogen T-669). Neuronal mitochondria were labeled with adenoviral-expressed mitoGFP plus TMRE, or with adeno-mitoDsRed for time-lapse studies. Cover slips were loaded onto a chamber (Warner instrument, RC-40LP) in modified Krebs-Henseleit buffer (138 mM NaCl, 3.7 mM KCl, 1.2 mM KH2PO4, 15 mM Glucose, 20 mM HEPES and 1 mM CaCl2) at room temperature and visualized on a Nikon Ti Confocal microscope equipped with a 60×1.3 NA oil immersion objective. For mitophagy studies MEFs were stained with MitoTracker Green and infected with adeno-mcherry Parkin or stained with LysoTracker Deep Red (50 nM, Invitrogen L-7528); carbonylcyanide p-trifluoromethoxyphenylhydrazone (FCCP, 10 μM for 1 hour) was applied as a positive control. Mitochondrial fusion was measured at 2 and 6 hours after PEG-mediated cell fusion of MEFs treated 48 hours previously with adeno-mitoGFP or adeno-mitoDsRed (Chen et al., 2005, J Biol Chem, 280:26185-26192). Laser confocal fluorescence was excited with 561 nm (MitoTracker Green, GFP, FITC), 637 nm (TMRE, LysoTracker Red, mcherry-Parkin, MitoTracker Orange) or 408 nm (Blue Hoechst) laser diodes. Image analysis—Mitochondrial aspect ratio was calculated using automated edge detection and Image J software (Song et al., 2015, Cell Metab, 21:273-285). Mitochondrial depolarization was calculated as % of green mitochondria visualized on MitoTracker Green and TMRE merged images, expressed as green/(green+yellow mitochondria)×100. Parkin aggregation was calculated as % of cells with mitochondrial clumping of mcherry-Parkin (Song et al., 2015, Cell Metab, 21:273-285). Lysosomal engulfment of mitochondria was identified by colocalization of LysoTracker Red and MitoTracker Green (Song et al., 2015, Cell Metab, 21:273-285).\n(§4) First, an adenovirus which recombinantly expressed the hMfn2 HR1 binding fragment (adeno HR1) was introduced into MEFs. It was reasoned that competition of the intra-molecular HR1-HR2 interaction by free HR1 fragment would increase mitochondrial fusion. […]", "values": [
      {"substance": "FQNFERRFEECISQSAVKTKFEQHTVRAKQIAEAVRLIMDSLHMAAREQQVYCEEMREERQDRLKFIDKQLELLAQDYKLRIKQ [adeno-HR1]", "mitochondrial aspect ratio (length/width; an index of mitochondrial fusion)": "increased mitochondrial aspect ratio"},
      {"substance": "QIAEAVRGIMDSLHMAAR [adeno367-384Gly, Mfn2 HR1 minipeptide, expressed in cells from adenoviral vector]", "mitochondrial aspect ratio (length/width; an index of mitochondrial fusion)": "promoted fusion"},
      {"substance": "QDRLKFIDKQGELLAQDYKLR [adeno398-418Gly, Mfn2 HR1 minipeptide, expressed in cells from adenoviral vector]", "mitochondrial aspect ratio (length/width; an index of mitochondrial fusion)": "potently suppressed fusion"},
      {"substance": "RQVSTAMAEEIRRLSVLVDDY (listed as Homo sapiens) [adeno428-448, non-HR1 control peptide]", "mitochondrial aspect ratio (length/width; an index of mitochondrial fusion)": "did not affect mitochondrial fusion"}
    ]},
    {"test_system": "murine embryonic fibroblasts (MEFs) expressing Mfn1 and/or Mfn2", "assay": "Mitochondrial aspect ratio and polarization in MEFs infected with adenovirus expressing Mfn2 HR1 peptides", "assay_type": "cell-based", "settings": "adenoviral expression; WT MEFs; TMRE", "experimental": "as §1, §2, §3, §4", "values": [
      {"substance": "QIAEAVRGIMDSLHMAAR [adeno367-384Gly, Mfn2 HR1 minipeptide, expressed in cells from adenoviral vector]", "mitochondrial polarization status": "did not adversely impact mitochondrial polarization status"},
      {"substance": "QDRLKFIDKQGELLAQDYKLR [adeno398-418Gly, Mfn2 HR1 minipeptide, expressed in cells from adenoviral vector]", "mitochondrial polarization status": "did not adversely impact mitochondrial polarization status"}
    ]},
    {"test_system": "murine embryonic fibroblasts (MEFs) expressing Mfn1 and/or Mfn2", "assay": "Mitochondrial aspect ratio and polarization in MEFs infected with adenovirus expressing Mfn2 HR1 peptides", "assay_type": "cell-based", "settings": "adenoviral expression; WT, Mfn1 KO, Mfn2 KO, Mfn1/Mfn2 DKO MEFs", "experimental": "as §1, §2, §3, §4", "values": [
      {"substance": "FQNFERRFEECISQSAVKTKFEQHTVRAKQIAEAVRLIMDSLHMAAREQQVYCEEMREERQDRLKFIDKQLELLAQDYKLRIKQ [adeno-HR1]", "mitochondrial aspect ratio (elongation/shortening) compared with adeno-HR1 or Mfn deletion": "altered mitochondrial aspect ratio"},
      {"substance": "QIAEAVRGIMDSLHMAAR [adeno367-384Gly, Mfn2 HR1 minipeptide, expressed in cells from adenoviral vector]", "mitochondrial aspect ratio (elongation/shortening) compared with adeno-HR1 or Mfn deletion": "comparable to that produced by adeno-HR1"}
    ]},
    {"test_system": "WT MEFs", "assay": "not given", "assay_type": "cell-based, murine", "settings": "WT MEFs; varying concentrations / time course", "experimental": "as §3\nTAT47-57 is a well-characterized “carrier” peptide able to promote active cellular peptide uptake. Specifically, a linear peptide was constructed in which the hMfn2 modulatory peptide was linked by a peptide bond at its C-terminus to a Gly-Gly dipeptide linker whose C-terminus was linked by a peptide bond to the TAT47-57 peptide having the sequence YGRKKRRQRRR (SEQ ID NO:25). The resultant linear fusion-promoting peptide conjugate comprises the sequence […] (SEQ ID NO:23). The fusion-inhibiting linear peptide has the sequence […] (SEQ ID NO:24). Except for dose-response studies, stock concentrations of TAT-minipeptides in sterile water were applied to cultured MEFs at a dilution factor of 1:2000 to achieve final concentrations of 1 or 5 μM.\nThe functional consequences of the Mfn2 HR1-derived peptides were defined after synthesizing them as C-terminal TAT47-57 conjugates to promote active cellular uptake. Mitochondrial fusion can be detected by mixing of organellar contents (Chen et al., 2005, J Biol Chem, 280:26185-26192). […] (FIG. 8A, scale bar is 20 microns). Mitochondrial aspect ratio changed in parallel with mitochondrial mixing (FIG. 8B).\nExperiments were performed with these shortened variants fused to a carrier peptide via a linker according to the methods described in Example 5 above. Wildtype MEFs were treated with varying concentrations of peptide fusion constructs described in Table 4 and mitochondrial aspect ratios determined. A dose response curve for TetherX-N and -C variants are shown in FIG. 17A (squares are data for TetherX-N and circles are for TetherX-C). The dose response curve for GoFuse-N and -C variants are shown in FIG. 17B (squares are for GoFuse-N and circles are for GoFuse-C).", "values": [
      {"substance": "QDRLKFIDKQGGYGRKKRRQRRR [TetherX-N, N-terminal fragment of TetherX-1 fused to TAT carrier, as tested]", "mitochondrial aspect ratio (effect of TAT fusion construct)": "exhibited little activity"},
      {"substance": "GELLAQDYKLRGGYGRKKRRQRRR [TetherX-C]", "mitochondrial aspect ratio (effect of TAT fusion construct)": "provoked mitochondrial fragmentation"},
      {"substance": "GIMDSLHMAARGGYGRKKRRQRRR [GoFuse-C]", "mitochondrial aspect ratio (effect of TAT fusion construct)": "induced mitochondrial elongation"},
      {"substance": "QIAEAVRGGYGRKKRRQRRRR [GoFuse-N, N-terminal fragment of GoFuse-1 fused to TAT carrier, as tested]", "mitochondrial aspect ratio (effect of TAT fusion construct)": "lacked fusion-promoting activity"}
    ]},
    {"test_system": "WT MEFs and Mfn2 KO MEFs", "assay": "Parkin recruitment and mitophagy induced by mitochondrial depolarization, adenoviral expression", "assay_type": "cell-based, murine", "settings": "data not shown", "experimental": "as §3\nAlso studied were the effects of the adenoviral expression of WT Mfn2, HR1 peptide, adeno367-384 and its glycine variant and adeno398-418 and its glycine variant on Parkin recruitment and mitophagy induced by mitochondrial depolarization which are also impaced by the Mfn1 and Mfn2 proteins (Chen et al., 2013, Science, 340:471-475; Gong G. et al., 2015, Science, 350:aad2459). These studies were performed using WT MEFs and Mfn2 KO MEFs.", "values": [
      {"substance": "QIAEAVRLIMDSLHMAAR (listed as Homo sapiens) [adeno367-384]", "Parkin recruitment and mitophagy induced by mitochondrial depolarization": "No significant effects"},
      {"substance": "QDRLKFIDKQLELLAQDYKLR (listed as Homo sapiens) [adeno398-418]", "Parkin recruitment and mitophagy induced by mitochondrial depolarization": "No significant effects"},
      {"substance": "FQNFERRFEECISQSAVKTKFEQHTVRAKQIAEAVRLIMDSLHMAAREQQVYCEEMREERQDRLKFIDKQLELLAQDYKLRIKQ [adeno-HR1]", "Parkin recruitment and mitophagy induced by mitochondrial depolarization": "No significant effects"},
      {"substance": "QIAEAVRGIMDSLHMAAR [adeno367-384Gly, Mfn2 HR1 minipeptide, expressed in cells from adenoviral vector]", "Parkin recruitment and mitophagy induced by mitochondrial depolarization": "did not adversely impact"},
      {"substance": "QDRLKFIDKQGELLAQDYKLR [adeno398-418Gly, Mfn2 HR1 minipeptide, expressed in cells from adenoviral vector]", "Parkin recruitment and mitophagy induced by mitochondrial depolarization": "did not adversely impact"}
    ]}
  ]
}
